# ChEMBL document CHEMBL4382283, “Discovery of a GPR40 Superagonist: The Impact of Aryl Propionic Acid α-Fluorination” (ACS Med Chem Lett, 2019)
# Active and inactive are the calls of the source. The rule behind the calls is not given here.
# Experiments:
# [1] = molecular target: T1, Free fatty acid receptor 1 (Homo sapiens, UniProt O14842); test: Agonist activity at GPR40 in human islets assessed as induction of glucose-stimulated insulin secretion at 10 uM after 1 hr by HTRF assay relative to (S)-3-Cyclopropyl-3-(3-(((1r,4S)-4-(2-fluoro-5-methoxyphenyl)cyclohexyl)methoxy)phenyl)propanoic acid
# [2] = molecular target: Free fatty acid receptor 1 (Rattus norvegicus, UniProt Q8K3T4); test: Agonist activity at rat GPR40 expressed in HEK293 cells assessed as induction of intracellular calcium mobilization by Fluo-8 dye based FLIPR assay; type: functional, cell-based
# [3] = molecular target: Voltage-gated inwardly rectifying potassium channel KCNH2 (Homo sapiens, UniProt Q12809); test: Inhibition of human ERG
# [4] = Oral bioavailability in Sprague-Dawley rat at 10 mg/kg by LC-MS/MS analysis; type: ADME, organism-based; settings: in vivo
# [5] = Plasma concentration in diet-induced obese C57BL/6J mouse at 1 mg/kg, po once daily for 14 days measured 24 hrs post last dose; type: ADME, organism-based
# [6] = Plasma concentration in diet-induced obese mouse at 1 mg/kg, po; type: ADME, organism-based; settings: in vivo
# [7] = Half life in Sprague-Dawley rat at 2 mg/kg, iv by LC-MS/MS analysis; type: ADME, organism-based; settings: in vivo
# [8] = Plasma concentration in diet-induced obese mouse at 10 mg/kg, po; type: ADME, organism-based; settings: in vivo
# [9] = molecular target: T1, Free fatty acid receptor 1; test: Agonist activity at human GPR40 expressed in HEK293 cells assessed as induction of intracellular calcium mobilization by Fluo-8 dye based FLIPR assay; type: functional, cell-based
# [10] = Plasma concentration in diet-induced obese mouse at 3 mg/kg, po; type: ADME, organism-based; settings: in vivo
# [11] = Plasma concentration in diet-induced obese C57BL/6J mouse at 10 mg/kg, po once daily for 14 days measured 24 hrs post last dose; type: ADME, organism-based
# [12] = molecular target: T1, Free fatty acid receptor 1; test: Full agonist activity at human GPR40 expressed in CHOK1 cells assessed as induction of GalphaS-mediated cAMP accumulation after 30 mins HTRF assay; type: functional, cell-based
# [13] = Clearance in Sprague-Dawley rat at 10 mg/kg, po or 2 mg/kg, iv by LC-MS/MS analysis; type: ADME, organism-based; settings: in vivo
# Mus musculus [14] = test: Antiobesity activity in diet-induced obese C57BL/6J mouse assessed as body weight loss at 3 mg/kg, po once daily for 14 days measured on day 15 (reference value: 3.74 +/- 0.6%); type: functional
# Mus musculus [15] = test: Antiobesity activity in diet-induced obese C57BL/6J mouse assessed as reduction in cumulative food intake administered orally once daily for 14 days; type: functional, organism-based
# [16] = molecular target: T1, Free fatty acid receptor 1; test: Positive allosteric modulation of human GPR40 expressed in CHOK1 cells assessed as increase in [3H]-(S)-3-Cyclopropyl-3-(3-(((1r,4S)-4-(2-fluoro-5-methoxyphenyl)cyclohexyl)methoxy)phenyl)propanoic acid binding after 60 mins by TopCount method; type: cell-based
# [17] = Drug metabolism in human hepatocytes at 10 uM after 2 hr by LC-MS analysis; type: ADME, cell-based, Hepatocyte
# [18] = Half life in Sprague-Dawley rat at 10 mg/kg, po by LC-MS/MS analysis; type: ADME, organism-based; settings: in vivo
# Cytochrome P450 [19] = test: Induction of CYP450 in human liver microsomes at 10 uM after 0.5 hrs by LC-MS/MS analysis; type: ADME
# [20] = Volume of distribution at steady state in Sprague-Dawley rat at 10 mg/kg, po or 2 mg/kg, iv by LC-MS/MS analysis; type: ADME, organism-based; settings: in vivo, read-out: Vdss
# Mus musculus [21] = test: Antidiabetic activity in diet-induced obese mouse assessed as reduction in blood glucose excursion administered orally 45 mins prior to glucose challenge and measured up to 120 mins by OGTT; type: functional
# [22] = Plasma concentration in diet-induced obese mouse at 0.1 mg/kg, po; type: ADME, organism-based; settings: in vivo
# [23] = molecular target: T1, Free fatty acid receptor 1
# Description: Displacement of [3H]AM-1638 from human GPR40 expressed in CHOK1 cells assessed as association half life after 60 mins by TopCount method
# [24] = Protein binding in human plasma at 10 uM after 6 hrs by equilibrium dialysis method; type: ADME, cell-free; settings: read-out: PPB
# [25] = Metabolic stability in human hepatocytes assessed as parent compound remaining at 10 uM after 2 hr by LC-MS analysis; type: ADME, cell-based, Hepatocyte
# Mus musculus [26] = test: Antiobesity activity in diet-induced obese C57BL/6J mouse assessed as body weight loss administered orally once daily for 14 days; type: functional, organism-based
# [27] = Genotoxicity in Salmonella typhi by Ames test; type: toxicity; settings: salmonella enterica subsp. enterica serovar […]
# Mus musculus [28] = test: Antiobesity activity in diet-induced obese C57BL/6J mouse assessed as body weight loss at 0.3 mg/kg, po once daily for 14 days measured on day 15 (reference value: 3.74 +/- 0.6%); type: functional
# Mus musculus [29] = test: Antiobesity activity in diet-induced obese C57BL/6J mouse assessed as body weight loss at 10 mg/kg, po once daily for 14 days measured on day 15 (reference value: 3.74 +/- 0.6%); type: functional
# [30] = Plasma concentration in diet-induced obese mouse at 0.03 mg/kg, po; type: ADME, organism-based; settings: in vivo
# [31] = molecular target: T1, Free fatty acid receptor 1; test: Agonist activity at human GPR40 expressed in CHOK1 cells assessed as induction of Galphaq-mediated IP1 accumulation after 90 mins HTRF assay; type: functional, cell-based
# [32] = Plasma concentration in diet-induced obese C57BL/6J mouse at 3 mg/kg, po once daily for 14 days measured 24 hrs post last dose; type: ADME, organism-based
# [33] = Cmax in Sprague-Dawley rat at 10 mg/kg, po by LC-MS/MS analysis; type: ADME, organism-based; parameters: dose 10 mg/kg, route oral; settings: in vivo
# [34] = Plasma concentration in diet-induced obese C57BL/6J mouse at 30 mg/kg, po once daily for 14 days measured 24 hrs post last dose; type: ADME, organism-based
# [35] = Plasma concentration in diet-induced obese mouse at 0.3 mg/kg, po; type: ADME, organism-based; settings: in vivo
# [36] = Plasma concentration in diet-induced obese C57BL/6J mouse at 0.3 mg/kg, po once daily for 14 days measured 24 hrs post last dose; type: ADME, organism-based
# Cytochrome P450 [37] = test: Inhibition of CYP450 in human liver microsomes at 10 uM after 0.5 hrs by LC-MS/MS analysis; type: ADME
# [38] = molecular target: T1, Free fatty acid receptor 1; test: Agonist activity at GPR40 in human islets assessed as induction of glucose-stimulated insulin secretion after 1 hr by HTRF assay
# Mus musculus [39] = test: Antiobesity activity in diet-induced obese C57BL/6J mouse assessed as body weight loss at 30 mg/kg, po once daily for 14 days measured on day 15 (reference value: 3.74 +/- 0.6%); type: functional
# Mus musculus [40] = test: Antiobesity activity in diet-induced obese C57BL/6J mouse assessed as body weight loss at 1 mg/kg, po once daily for 14 days measured on day 15 (reference value: 3.74 +/- 0.6%); type: functional
# [41] = molecular target: T1, Free fatty acid receptor 1; remark: listed apart in the source
# Description: Displacement of [3H]AM-1638 from human GPR40 expressed in CHOK1 cells assessed as dissociation half life after 40 mins by TopCount method
# Rattus norvegicus [42] = test: Antiobesity activity in ZDF rat assessed as reduction in food intake at 10 mg/kg daily for 38 days relative to control; type: functional; parameters: scale not given: the % may be the effect or the level left
# Rattus norvegicus [43] = test: Antiobesity activity in ZDF rat assessed as body weight loss at 10 mg/kg daily for 38 days relative to control; type: functional
# Rattus norvegicus [44] = test: In vivo agonist activity at GPR40 in ZDF rat assessed as increase in plasma total GLP1 level at 10 mg/kg daily for 38 days relative to control; type: functional
# Mus musculus [45] = test: Antidiabetic activity in diet-induced obese mouse assessed as reduction in blood glucose excursion at 10 mg/kg, po administered 45 mins prior to glucose challenge and measured up to 120 mins by OGTT; type: functional, organism-based
# [46] = molecular target: T1, Free fatty acid receptor 1; test: Partial agonist activity at human GPR40 expressed in CHOK1 cells assessed as induction of GalphaS-mediated cAMP accumulation after 30 mins HTRF assay; type: functional, cell-based
# Free fatty acid receptor 1 (Rattus norvegicus, UniProt Q8K3T4), sequence (Q8K3T4 whole entry): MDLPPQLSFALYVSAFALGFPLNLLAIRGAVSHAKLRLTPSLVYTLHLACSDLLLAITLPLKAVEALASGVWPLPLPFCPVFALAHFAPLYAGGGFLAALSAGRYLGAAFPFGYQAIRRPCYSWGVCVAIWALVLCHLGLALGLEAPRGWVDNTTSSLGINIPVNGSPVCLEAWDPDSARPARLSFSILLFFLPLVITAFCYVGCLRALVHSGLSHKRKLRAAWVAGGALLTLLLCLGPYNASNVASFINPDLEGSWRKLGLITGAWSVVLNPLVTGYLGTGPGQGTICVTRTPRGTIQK
# T1 sequence (O14842 whole entry): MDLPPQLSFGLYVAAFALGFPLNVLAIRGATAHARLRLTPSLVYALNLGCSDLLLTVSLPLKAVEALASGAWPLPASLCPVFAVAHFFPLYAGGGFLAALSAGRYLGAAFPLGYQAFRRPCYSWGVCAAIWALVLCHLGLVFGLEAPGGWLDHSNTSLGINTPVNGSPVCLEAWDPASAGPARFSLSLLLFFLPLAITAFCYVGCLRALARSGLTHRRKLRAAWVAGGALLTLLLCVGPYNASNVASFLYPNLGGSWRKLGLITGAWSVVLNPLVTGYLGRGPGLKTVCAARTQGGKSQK
# Voltage-gated inwardly rectifying potassium channel KCNH2, sequence (Q12809 whole entry): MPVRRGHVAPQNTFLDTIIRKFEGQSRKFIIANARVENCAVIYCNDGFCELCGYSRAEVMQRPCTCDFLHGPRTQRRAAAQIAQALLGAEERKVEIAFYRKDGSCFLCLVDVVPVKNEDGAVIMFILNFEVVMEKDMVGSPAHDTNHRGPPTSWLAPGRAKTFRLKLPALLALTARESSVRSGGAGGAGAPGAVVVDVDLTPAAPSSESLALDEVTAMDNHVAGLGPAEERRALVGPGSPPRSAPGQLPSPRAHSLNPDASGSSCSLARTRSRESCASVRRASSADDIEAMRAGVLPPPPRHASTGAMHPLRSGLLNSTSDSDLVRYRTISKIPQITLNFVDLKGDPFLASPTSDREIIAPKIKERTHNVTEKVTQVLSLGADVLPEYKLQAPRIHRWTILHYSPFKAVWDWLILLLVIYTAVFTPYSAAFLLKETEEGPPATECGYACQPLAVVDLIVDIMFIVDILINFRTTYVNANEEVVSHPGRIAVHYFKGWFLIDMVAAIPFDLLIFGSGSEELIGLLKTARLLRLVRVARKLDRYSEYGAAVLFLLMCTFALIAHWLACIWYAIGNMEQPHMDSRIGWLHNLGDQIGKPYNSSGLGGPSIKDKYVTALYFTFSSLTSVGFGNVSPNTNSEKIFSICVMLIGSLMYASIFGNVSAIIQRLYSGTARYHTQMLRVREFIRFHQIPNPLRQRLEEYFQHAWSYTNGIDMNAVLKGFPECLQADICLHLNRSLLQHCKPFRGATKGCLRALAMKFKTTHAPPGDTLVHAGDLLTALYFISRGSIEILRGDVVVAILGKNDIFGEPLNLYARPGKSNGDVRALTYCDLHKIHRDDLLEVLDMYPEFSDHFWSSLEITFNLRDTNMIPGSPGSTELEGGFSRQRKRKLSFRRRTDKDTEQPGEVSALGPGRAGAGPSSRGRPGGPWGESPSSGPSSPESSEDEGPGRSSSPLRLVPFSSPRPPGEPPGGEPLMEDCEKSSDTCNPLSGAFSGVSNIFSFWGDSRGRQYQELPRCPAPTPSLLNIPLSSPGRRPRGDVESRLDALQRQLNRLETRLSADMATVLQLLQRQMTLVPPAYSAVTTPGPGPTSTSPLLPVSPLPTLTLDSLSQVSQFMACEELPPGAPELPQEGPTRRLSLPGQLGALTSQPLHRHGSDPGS
compound,measurement,setting,value
Cc1cc(OCCCS(C)(=O)=O)cc(C)c1-c1cccc(COc2ccc3c(c2)OC[C@H]3CC(=O)O)c1,Efficacy,[1],40%
same,EC50,[2],39 nM
COc1ccc(F)c([C@H]2CC[C@H](COc3cccc([C@H](C4CC4)[C@@](C)(F)C(=O)O)c3)CC2)c1,inhibition (INH),[3],Not Active
same,bioavailability,[4],92.1%
same,concentration at 24 h,[5],340 nM
same,concentration,[6],220 nM
same,half-life,[7],4.3 h
same,concentration,[8],3830 nM
same,EC50,[9],0.25 nM
same,concentration,[10],870 nM
same,concentration at 24 h,[11],7050 nM
same,Activity,[12],Active
same,clearance,[13],17 mL/min/kg
same,Activity,Mus musculus [14],-2.56%
same,Activity,Mus musculus [15],Dose-dependent effect
same,Activity,[16],Active
same,Drug metabolism,[17],1%
same,half-life,[18],7.9 h
same,Activity,Cytochrome P450 [19],Not Active
same,Vd,[20],3.2 L/kg
same,Activity,Mus musculus [21],Dose-dependent effect
same,minimal effective dose,"Mus musculus [21]; po, read-out: MED",3 mg/kg
same,concentration,[22],22 nM
same,T1/2,[23],3.3 min
same,"fraction unbound at 6 h, 10 µM",[24],< 0.001
same,Stability,[25],73%
same,Activity,Mus musculus [26],Dose-dependent effect
same,Activity,[27],Non-Toxic
same,Activity,Mus musculus [28],3.15%
same,Activity,Mus musculus [29],-10.07%
same,concentration,[30],7.4 nM
same,EC50,[31],3.1 to 5.3 nM
same,concentration at 24 h,[32],1290 nM
same,Cmax,[33],495 ng/mL
same,concentration at 24 h,[34],391000 nM
same,concentration,[35],87 nM
same,concentration at 24 h,[36],100 nM
same,inhibition (INH),Cytochrome P450 [37],Not Active
same,EC50,[38],3.7 nM
same,EC50,[2],0.34 nM
same,Activity,Mus musculus [39],-6.84%
same,Activity,Mus musculus [40],1.05%
same,T1/2,[41],0.333 h
COc1ccc(F)c([C@H]2CC[C@H](COc3cccc([C@@H](CC(=O)O)C4CC4)c3)CC2)c1,bioavailability,[4],91.4%
same,half-life,[7],7.2 h
same,concentration,[8],98700 nM
same,EC50,[9],0.94 nM
same,Activity,[12],Active
same,Activity,Rattus norvegicus [42],10%
same,clearance,[13],0.4 mL/min/kg
same,Activity,[16],Active
same,Drug metabolism,[17],4%
same,half-life,[18],9.1 h
same,Vd,[20],0.2 L/kg
same,T1/2,[23],0.8 min
same,Activity,Rattus norvegicus [43],6%
same,"fraction unbound at 6 h, 10 µM",[24],< 0.001
same,Stability,[25],56%
same,EC50,[31],199 nM
same,Cmax,[33],18200 ng/mL
same,fold change (FC),Rattus norvegicus [44],6.2
same,Activity,Mus musculus [45],Active
same,EC50,[38],1370 nM
same,EC50,[2],4.1 nM
same,T1/2,[41],0.00233 h
COc1ccc(F)c([C@H]2CC[C@H](COc3cccc([C@H](C4CC4)[C@@H](F)C(=O)O)c3)CC2)c1,bioavailability,[4],73.8%
same,half-life,[7],4.7 h
same,EC50,[9],1.1 nM
same,Activity,[12],Active
same,clearance,[13],2.7 mL/min/kg
same,Drug metabolism,[17],7%
same,half-life,[18],4.3 h
same,Vd,[20],0.9 L/kg
same,Stability,[25],63%
same,EC50,[31],20 nM
same,Cmax,[33],3700 ng/mL
same,EC50,[2],28 nM
COc1ccc(F)c([C@H]2CC[C@H](COc3cccc([C@H](C4CC4)C(F)(F)C(=O)O)c3)CC2)c1,EC50,[9],16 nM
same,EC50,[2],34 nM
COc1ccc(F)c([C@H]2CC[C@H](COc3cccc([C@H](C4CC4)[C@H](C)C(=O)O)c3)CC2)c1,bioavailability,[4],45.5%
same,half-life,[7],4.8 h
same,clearance,[13],8.1 mL/min/kg
same,Drug metabolism,[17],5%
same,half-life,[18],4.4 h
same,Vd,[20],0.9 L/kg
same,Stability,[25],45%
same,EC50,[31],2 nM
same,Cmax,[33],1360 ng/mL
COc1ccc(F)c([C@H]2CC[C@H](COc3cccc([C@H](C4CC4)C(C)(C)C(=O)O)c3)CC2)c1,EC50,[9],0.11 nM
same,EC50,[31],220 nM
same,EC50,[2],0.31 nM
COc1ccc(F)c([C@H]2CC[C@H](COc3cccc([C@H](C4CC4)[C@](C)(F)C(=O)O)c3)CC2)c1,Activity,[12],Active
same,EC50,[31],89 nM
COc1ccc(F)c(-c2ccc(COc3cccc([C@@H](CC(=O)O)C4CC4)c3)cc2C2=CCCC2(C)C)c1,Activity,[12],Active
same,Activity,[31],Active
COc1ccc(F)c([C@H]2CC[C@H](COc3cccc([C@H](C4CC4)[C@H](F)C(=O)O)c3)CC2)c1,EC50,[9],54 nM
same,Activity,[12],Active
same,EC50,[2],163 nM
COc1ccc(F)c([C@H]2CC[C@H](COc3cccc([C@H](C4CC4)[C@@H](C)C(=O)O)c3)CC2)c1,EC50,[9],2.2 nM
same,EC50,[31],22 nM
same,EC50,[2],4.9 nM
COc1ccc(F)c([C@H]2CC[C@@H](COc3cccc([C@@H](CC(=O)O)C4CC4)c3)CC2)c1,Activity,[46],Active
